Assay [1] in a line: Inhibition of HIV gp41 hexamer bundle formation after 30 mins by SEC-HPLC assay. Also noted: species or system Human immunodeficiency virus. On the technique in general: In gel filtration, larger molecules generally elute earlier.
Assay [2] is described as follows: Inhibition of HIV gp41 hexamer bundle formation by ELISA. Also noted: species or system Human immunodeficiency virus.
For assay [3], the system named is Human immunodeficiency virus. The experiment in a line: Inhibition of HIV gp41 hexamer bundle formation at 50 uM after 30 mins by size exclusion chromatography assay.
Assay [4] in a line: Inhibition of HIV gp41 hexamer bundle formation after 30 mins by size exclusion chromatography assay. Also noted: species or system Human immunodeficiency virus.
The test system of assay [5] is Human immunodeficiency virus. As to the kind of experiment: Inhibition of HIV gp41 six-helix bundle formation at 25 uM by FRET-based assay relative to C18Aib.
In assay [6] the test system is Human immunodeficiency virus. As to the kind of experiment: Inhibition of HIV gp41 six-helix bundle formation at 25 uM by FRET-based assay relative to ADS--J1.

Results on four compounds are retold here after ChEMBL document CHEMBL1155181, “Structure-based design of substituted biphenyl ethylene ethers as ligands binding in the hydrophobic pocket of gp41 and blocking the helical bundle formation” (Bioorg Med Chem Lett, 2009).

SMILES strings stand for the structures.

One may read the IC50 as the midpoint of a concentration-inhibition curve. Take `O=C(O)c1ccc(-c2c3nc(c(-c4ccc(C(=O)O)cc4)c4ccc([nH]4)c(-c4ccc(C(=O)O)cc4)c4ccc([nH]4)c(-c4ccc(C(=O)O)cc4)c4nc2C=C4)C=C3)cc1`: the results for the half-maximal inhibitory concentration (IC50) in assay [1] and in assay [2] were 0.9 µM and 1 µM, respectively.

By inhibition is commonly meant the share of the control response that was lost under treatment. Low readings indicate a response near the control, high ones a response far below the control. For the compound `COC(=O)c1ccc(CCOc2cccc(-c3cccc(-c4nn[nH]n4)c3)c2)c2ccccc12`, the values for the inhibition in assay [3], in assay [5] and in assay [6] were 95%, 75% and 67%, respectively. Besides, the IC50 in assay [4] (read-out: IC50) worked out at 31 µM.

Turning to `O=S(=O)(c1ccccc1)n1ccc2c(CCOc3cccc(-c4cccc(-c5nnn[nH]5)c4)c3)cccc21`, the inhibition in assay [3] amounted to 100%. Besides, in assay [4] (read-out: IC50), the IC50 came out at 32.9 µM.

In turn, `CC(C)(C)OC(=O)n1ccc2c(CCOc3cccc(-c4cccc(-c5nnn[nH]5)c4)c3)cccc21` yielded an inhibition in assay [3] of 100%. Further, the IC50 result in assay [4] is reported as “Not Active”.
